The values that follow come from patent publication US11584744B2 (UNIVERSITY OF WASHINGTON, priority 2017, dated 2023).

One data set deals with S. aureus. The experiment in a line: Serum shift assays (MIC with and without 50% human serum). Type of data set: cell-based, Staphylococcus aureus. Conditions: for MIC: Staphylococcus aureus. In short, it runs like this:
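MICs run in triplicate with and without 50% heat-inactivated pooled human serum in MHB. Threefold compound dilutions (≤0.5% DMSO), inoculum from 1*10^8 CFUs/mL diluted 1:100, incubated ~20 h at 37° C. MIC = lowest concentration giving ≥90% growth inhibition.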

Data set [1] can be described thus: Protein binding assays, equilibrium dialysis. It is filed as in vitro ADME, mouse. The conditions noted are these: 1 μM, equilibrium dialysis 22 hours. The method, then:
Protein binding assays: Compound binding to mouse plasma proteins was determined using 96-well equilibrium dialyzer plates (SDIS 9610EN, Nest Group, Inc.). Mouse plasma ([…]-SW-F, BioreclamationIVT, Westbury, N.Y.) containing compound (final concentration 1 μM) was added to a donor chamber as a 150 μL volume. The buffer solution (0.2 mM phosphate buffer, 150 μL) was added to the reciprocal acceptor chamber. Each compound was tested in triplicate. To prepare calibration solution for compound quantifications, blank wells were prepared containing only mouse plasma in a donor well and buffer solution in its acceptor well. The equilibrium dialysis was carried out by rocking the plate for 22 hours in 37° C. Once equilibrium was reached, the plasma and buffer solution from both wells were carefully removed for further analysis with liquid chromatography-tandem mass spectrometry. Plasma solution and internal standard were mixed in the presence of 80% acetonitrile. After centrifuging the solution, the supernatant was transferred to an insert. Similarly, the buffer solution from the acceptor side was prepared containing 40% acetonitrile. Calibration standards for donor and acceptor sides were prepared with compound concentrations of 50 nM, 100 nM, 250 nM, 500 nM, and 1 μM. The compound concentrations from each well were calculated from the calibration curves using Microsoft Excel. The percentage of the test compound bound was determined as follows: % Free=(Concentration buffer chamber/Concentration plasma chamber)×100% % Bound=100%−% Free
In general terms: In equilibrium dialysis free small molecules cross a membrane that holds back macromolecules.

In data set [2] the test system is S. aureus (ATCC 29213). The experiment in a line: Macromolecular synthesis assays (radiolabeled precursor incorporation). Type of data set: cell-based, Staphylococcus aureus. Conditions: 30 minute incubations. The method, then:
Macromolecular synthesis assays: Methods for measuring uptake of radiolabeled precursors by S. aureus (ATCC strain 29213) were adapted from previous publications. For these assays, bacteria were grown in defined media (DM): RPMI-1640 pH 7.3±0.1 without phenol red or L-glutamine (Lonza, Basel, Switzerland) supplemented with 4 mM L-glutamine (Lonza, Basel, Switzerland), 10 mM HEPES (Lonza, Basel, Switzerland), and 1% (w/v) D-glucose (Sigma Aldrich, St. Louis, Mo.). Fresh overnight cultures grown in DM at 37° C. were diluted 1:50 in pre-warmed DM and grown at 37° C. with shaking (150 rpm) until reaching an OD600 of 0.420 correlating to ˜1*10^9 CFUs/mL in mid-log phase. Each compound was assayed in quadruplicate with an 11-point three-fold serial dilution per radioisotope. A pre-warmed 96-well V-bottom plate (Corning 3894; Corning, Corning, Mass.) containing 25 μL of 4× final concentration of test compound was inoculated with 65 μL of mid-log phase bacteria (OD600 of 0.420). Both positive and negative control wells received 25 μL untreated DM and 65 μL of inoculum at the same time. After one minute, 10 μL of radiolabeled precursor (10× final concentration in DM) was added to samples and positive control wells. Final isotope concentrations for assay of [3H]-lysine (protein), [3H]-thymidine (DNA), and [3H]-uridine (RNA) were 10 μCi/mL, 2 μCi/mL, and 2 μCi/mL respectively. […] After termination, 10 μL of 10× radiolabeled precursor was added to negative control wells. The negative control consisted of adding radiolabeled precursors after termination of the bacterial incubation in order to represent background measurement of the isotope. Plates were sealed with plate tape (Thermo Fischer Scientific, Waltham, Mass.) and shaken at 250 rpm for one hour at room temperature. Aliquots of 125 μL were transferred from the 96-well V-bottom plates to 96-well filter plates (Merck Millipore, Billerica, Mass.). To bind macromolecules, the samples were passed through the filter membrane (0.45 μM hydrophilic Durapore PVDF membrane) with a vacuum manifold, then the filter was washed with 4×200 μL 10% TCA and 1×150 μL of 95% ethanol, and dried overnight in vacuum at room temperature. 25 μL Ultima Gold scintillation fluid (Perkin Elmer, Waltham, Mass.) was added to each well and DPM was quantified using a MicroBeta^2-2450 (Perkin Elmer, Waltham, Mass.) scintillation counter. The percent incorporation was determined by subtracting each well by the average negative background and dividing by the average positive incorporation×100. Error bars represent SEM between replicates. The assay was run twice with similar results.

The subject of data set [3] is S. aureus (ATCC 29213). Briefly: MBC determinations (with MIC). Type of data set: cell-based. Conditions: Staphylococcus aureus, ATCC29213, S. aureus (ATCC 29213); for MIC: MBC experiment (Table 5), read-out: MIC; for MBC: concentration killing 99.9% of inoculum, read-out: MBC. The procedure:
Maximum DMSO concentrations were 0.5%. […] Each experiment's inoculum was serially diluted and plated on TSA to count competent cells. Cultures were incubated at 37° C. for at least 20 h and plated on TSA for CFU determination.
MIC/MBC: Measurements of minimum bactericidal concentrations (MBCs) were done with the S. aureus strain ATCC 29213 (Table 5).

Data set [4] can be described thus: Murine pharmacokinetics studies (oral, dried blood spots). It is filed as in vivo, mice. Conditions: 50 mg/kg single oral dose; for Cmax / AUC(0-t): mouse, whole blood (dried blood spots); for Cmax: po, 50 mg/kg, read-out: Mouse Oral PK DBS: Average Cmax; for AUC(0-t): read-out: Mouse Oral PK DBS: Average AUC(0-24 h) (converted). The method, then: Murine pharmacokinetics studies. The methods were performed as previously described. Briefly, test compounds were administered to mice by oral gavage (3 mice per compound) followed by tail blood sampling at intervals of 30, 60, 120, 240, 360, 480, and 1440 min. Blood samples were analyzed by extracting dried blood spots in acetonitrile for measurements of compound concentrations by liquid chromatography/tandem mass spectrometry.
Pharmacokinetics studies: Selected compounds were administered to mice in single oral doses at 50 mg/kg and tail blood was sampled at time intervals out to 24 h to assess blood exposure (Table 9).

A further data set has as its target MetRS (C. parvum) (Cryptosporidium parvum, UniProt Q5CVN0). Briefly: MetRS (C. parvum) enzyme inhibition. The conditions noted are these: read-out: (C) MetRS (C. parvum) IC50. It is filed as biochemical.
[5] abbreviates: 50% human serum, read-out: Avg MIC ± SEM (+50% serum).
Where [6] appears, read: no serum, read-out: Avg MIC ± SEM (no serum).

Converted amounts (≈) assume the structure as drawn. “And” between values parts separate entries of the source, which are not always exact repeats. Equal entries are not always repeated. Where two headings read alike, the source gives them in different places. Bounds are passed on as bounds.

Sequence of MetRS (C. parvum) (Q5CVN0 entry or part of it): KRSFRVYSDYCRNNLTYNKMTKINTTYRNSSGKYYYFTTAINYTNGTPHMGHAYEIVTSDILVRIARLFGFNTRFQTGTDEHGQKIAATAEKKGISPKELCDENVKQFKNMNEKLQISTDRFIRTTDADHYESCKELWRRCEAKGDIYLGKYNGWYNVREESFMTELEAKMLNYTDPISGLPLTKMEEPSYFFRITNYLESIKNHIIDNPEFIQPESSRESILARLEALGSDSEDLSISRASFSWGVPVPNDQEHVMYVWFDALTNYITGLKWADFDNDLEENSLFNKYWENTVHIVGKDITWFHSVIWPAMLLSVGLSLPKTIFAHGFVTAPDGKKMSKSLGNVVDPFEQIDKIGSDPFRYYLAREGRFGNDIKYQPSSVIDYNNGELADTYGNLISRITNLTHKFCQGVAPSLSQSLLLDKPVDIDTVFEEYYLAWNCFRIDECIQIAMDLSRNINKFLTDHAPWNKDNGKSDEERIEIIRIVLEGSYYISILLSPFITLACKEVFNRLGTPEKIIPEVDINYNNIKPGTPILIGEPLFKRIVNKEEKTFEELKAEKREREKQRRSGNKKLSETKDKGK

One may read the MIC as the lowest concentration found to suppress growth. Take `Fc1ccc2nc(NCCCNCc3cc(Cl)cc(Cl)c3)[nH]c2n1` [Compound 1614, [(3,5-dichlorophenyl)methyl][3-({5-fluoro-3H-imidazo[4,5-b]pyridin-2-yl}amino)propyl]amine]: the MIC was found to be 42.7 ± 4.1 µg/mL with S. aureus (setting [5]) and 2.47 ± 0.35 µg/mL with S. aureus (setting [6]). Moreover, in data set [1], the “% binding to mouse plasma” value came to 96.5%.
The term MBC denotes the smallest concentration meeting the test's criterion for killing. Usually Cmax stands for the maximum level reached in the sampled fluid or tissue. With `Fc1ccc2nc(NCCCN[C@@H]3CCNc4c(Cl)cc(Cl)cc43)[nH]c2n1` [Compound 1717, (4R)-6,8-dichloro—N-[3-({5-fluoro-3H-imidazo[4,5-b]pyridin-2-yl}amino)propyl]-1,2,3,4-tetrahydroquinolin-4-amine, reference compound], in the data set on S. aureus (50% human serum), the “Avg MIC ± SEM (+50% serum)” value was determined as 2.066 ± 0.19 µg/mL. Besides, the MIC was approximately 2 µg/mL in the data set on S. aureus (setting [5]), 0.088 ± 0.02 µg/mL in the data set with S. aureus (setting [6]) and 0.156 µg/mL (≈ 0.381 µM) in the data set with S. aureus (ATCC 29213) [3]. The “% binding to mouse plasma” value in data set [1] is given as 97.6%. Also, in the data set on S. aureus (ATCC 29213) [2], the “Incorporation of 3H-Lysine (protein synthesis)” value (shortened to “Incorporation of 3H-Lysine”) was “profoundly inhibited”. Besides, in the data set on S. aureus (ATCC 29213) [3], the MBC was found to be 5 µg/mL (≈ 12.2 µM). In data set [4], the Cmax is approximately 1500 ng/mL. For the same compound, the AUC(0-t) in data set [4] is 15700 ng·h/mL.
The term IC50 denotes the point on the concentration scale where inhibition reaches its midpoint. Regarding `CCn1c(Cc2ccc(Cl)cc2Cl)cn(Cc2nc3nc(F)ccc3[nH]2)c1=O` [Compound 2062, 4-[(2,4-dichlorophenyl)methyl]-3-ethyl-1-({5-fluoro-1H-imidazo[4,5-b]pyridin-2-yl}methyl)-2,3-dihydro-1H-imidazol-2-one], the MIC in the data set with S. aureus (setting [5]) is 11.8 ± 4.03 µg/mL; with S. aureus (setting [6]), 0.057 ± 0.004 µg/mL. Moreover, the “% binding to mouse plasma” value in data set [1] stood at 99.4%. Moreover, the IC50 at MetRS (C. parvum) was less than 40 nM.
For the compound `CCn1c(Cc2ccc(OC)cc2Cl)cn(Cc2nc3nc(Cl)ccc3[nH]2)c1=O` [Compound 2093, 1-({5-chloro-1H-imidazo[4,5-b]pyridin-2-yl}methyl)-4-[(2-chloro-4-methoxyphenyl)methyl]-3-ethyl-2,3-dihydro-1H-imidazol-2-one], the MIC in the data set on S. aureus (setting [5]) is 9.59 ± 1.71 µg/mL. Also, the minimum inhibitory concentration (MIC) in the data set with S. aureus (setting [6]) is 0.036 ± 0.01 µg/mL. Moreover, the “% binding to mouse plasma” value in data set [1] is 99.9%. Also, the “Incorporation of 3H-Lysine” value in the data set with S. aureus (ATCC 29213) [2] is “profoundly inhibited”. Moreover, in the data set with S. aureus (ATCC 29213) [3], the MIC was 0.078 µg/mL (≈ 0.18 µM) and the MBC turned out to be 1.25 µg/mL (≈ 2.89 µM). Further, the IC50 at MetRS (C. parvum) was less than 40 nM. Besides, in data set [4], the Cmax came to 7570 ± 2290 ng/mL and the AUC(0-t) is 20400 ng·h/mL.
Regarding `CCn1c(Cc2ccc(OC)cc2Cl)cn(Cc2nc3nc(F)ccc3[nH]2)c1=O` [Compound 2114, 4-[(2-chloro-4-methoxyphenyl)methyl]-3-ethyl-1-({5-fluoro-1H-imidazo[4,5-b]pyridin-2-yl}methyl)-2,3-dihydro-1H-imidazol-2-one], the IC50 at MetRS (C. parvum) was less than 40 nM. In addition, in data set [4], the Cmax worked out at 5450 ± 750 ng/mL and the AUC(0-t) is 15000 ng·h/mL.
Turning to `COc1cc(Cl)c(-c2cccc3nc(Cc4nc5nc(Cl)ccc5[nH]4)cn23)cc1OC` [Compound 2144, 2-({5-chloro-1H-imidazo[4,5-b]pyridin-2-yl}methyl)-5-(2-chloro-4,5-dimethoxyphenyl)imidazo[1,2-a]pyridine], the “Avg MIC ± SEM (+50% serum)” value in the data set on S. aureus (50% human serum) is 2.06 µg/mL and 2.055 ± 0.51 µg/mL. Also, the MIC in the data set with S. aureus (setting [5]) is approximately 2 µg/mL. For the same compound, the MIC in the data set on S. aureus (setting [6]) was 0.036 ± 0.01 µg/mL. Further, the “% binding to mouse plasma” value in data set [1] is reported as 98.4%. The “Incorporation of 3H-Lysine” value in the data set with S. aureus (ATCC 29213) [2] is given as “profoundly inhibited”. In addition, in the data set on S. aureus (ATCC 29213) [3], the MIC amounted to 0.01 µg/mL (≈ 0.022 µM) and the MBC stood at 0.313 µg/mL (≈ 0.689 µM). In addition, the IC50 at MetRS (C. parvum) came to 40.9 nM. In data set [4], the “Mouse Oral PK DBS: Average Cmax” value stood at 8950 ± 1380 ng/mL, the Cmax is approximately 9000 ng/mL and the AUC(0-t) was 63200 ng·h/mL.
Consider `CC(=O)NC[C@H]1CN(c2ccc(N3CCOCC3)c(F)c2)C(=O)O1` [LNZ, linezolid], for which, in the data set on S. aureus (setting [5]), the MIC came out at 1.89 ± 0.1 µg/mL. Besides, in the data set with S. aureus (setting [6]), the minimal inhibitory concentration (MIC) worked out at 1.57 ± 0.1 µg/mL. The “% binding to mouse plasma” value in data set [1] came out at 39.5%. In addition, in the data set with S. aureus (ATCC 29213) [3], the MIC is 2.5 µg/mL (≈ 7.41 µM) and the MBC is 160 µg/mL (≈ 474 µM). Further, in data set [4], the Cmax turned out to be 26500 ± 15200 ng/mL and the AUC(0-t) was 94400 ng·h/mL.
